In patent US20050204407A1, “Methods for identifying and developing compounds that interact with voltage-gated potassium channels of the kv4 family” (priority 2002, published 2005):

Experiments:
[1] = system: unc-119; hKv4.3; experiment: Pharynx pumping rate of unc-119; hKv4.3 nematode; assay type: in vivo, C. elegans; conditions: 500 mM, 3 hrs
[2] = system: hKv4.3 expressing C. elegans strain UG 1598; experiment: Pharynx pumping rate of hKv4.3 expressing pha-1 strain UG 1598; assay type: in vivo
Procedure: The influence of 4-aminopyridine, a known general antagonist of voltage-gated potassium channel, on the pharynx pumping rate of the hKv4.3 expressing C. elegans strain UG 1598 (Example III) was determined as follows.
(§1) The nematodes were cultivated to L4 stage on an agar plate, and then kept overnight at 20° C. to reach the adult stage. The worms where then transferred to agar plates containing 0,5 mM 4-aminopyridine in DMSO. After 3 hours at 20° C., the number of pharynx “pumps” (contractions) per 30 seconds were determined visually using a stopwatch. As a comparison, the influence of 4-aminopyridine on an N2 background was also determined, in essentially the same manner.

[3] = system: exp-2 background; experiment: Drinking assay (uptake of Calcein AM) in exp-2 background; assay type: in vivo, C. elegans; conditions: 0.3 mM, exp-2 without compound = 100%
Excerpt: (§2) The hKv4.3 expressing C. elegans strain UG 1611 (Example IV) was investigated for drinking behaviour by determining the uptake over time of the fluorescent dye Calcein AM, essentially as described in Examples 2 and 3 of the International application PCT/IB00/00575 by Applicant, using 96 well plates containing 100 nematodes/well. As a comparison, the exp-2(sa26as1426)V background was used.
(§3) The influence of mM 4-aminopyridine, a known general antagonist of voltage-gated potassium channel, on drinking behaviour of the hKv4.3 expressing C. elegans strain UG 1611 (Example IV) was determined by measuring the uptake of the fluorescent dye Calcein AM with and without the presence of 0.3 mM 4aminopyridine, essentially as described in Examples 2 and 3 of the International application PCT/IB00/00575 by Applicant.

[4] = system: exp-2 background; experiment: Pharynx pumping rate of original exp-2 background (comparison); assay type: in vivo, C. elegans; conditions: 2 mM, 3 hours at 20° C., FIG. 5
Procedure: The nematodes were cultivated to L4 stage on an agar plate, and then kept overnight at 20° C. to reach the adult stage. The worms where then transferred to agar plates containing 2 mM 4-aminopyridine in DMSO. After 3 hours at 20° C., the number of pharynx “pumps” (contractions) per 30 seconds were determined visually using a stopwatch. As a comparison, the influence of 4-aminopyridine on the original exp-2 background was also determined, in essentially the same manner.

[5] = system: hKv4.3 expressing C. elegans strain UG 1611; experiment: Drinking assay (uptake of Calcein AM) in hKv4.3 expressing exp-2 strain UG 1611; assay type: in vivo; conditions: 0.3 mM, exp-2 without compound = 100%, UG 1611 without compound 114%
Excerpt: as §2, §3

[6] = system: N2 background; experiment: Pharynx pumping rate of N2 background (comparison); assay type: in vivo, C. elegans; conditions: 0,5 mM, 3 hours at 20° C., FIG. 4
Procedure: as §1

[7] = system: hKv4.3 expressing C. elegans strain UG 1611; experiment: Pharynx pumping rate of hKv4.3 expressing exp-2 strain UG 1611; assay type: in vivo; parameters: Change observed (pharynx pumping rate): dose or concentration left out as unconfirmed
Procedure: The influence of 4-aminopyridine, a known general antagonist of voltage-gated potassium channel, on the pharynx pumping rate of the hKv4.3 expressing C. elegans strain UG 1611 (Example IV) was determined as follows.
The nematodes were cultivated to L4 stage on an agar plate, and then kept overnight at 20° C. to reach the adult stage. […] After 3 hours at 20° C., the number of pharynx “pumps” (contractions) per 30 seconds were determined visually using a stopwatch. As a comparison, the influence of 4-aminopyridine on the original exp-2 background was also determined, in essentially the same manner.

[8] = system: hKv4.3-expressing pha-1 strain UG 1598; experiment: Electropharyngeogram (EPG) of hKv4.3-expressing pha-1 strain UG 1598; assay type: in vivo, C. elegans; conditions: 215 mM
Procedure: An electropharyngeogram of the human Kv4.3 expressing strain UG 1547 was recorded using an Axopatch-1D amplifier (Axon instruments), essentially as described by Raizen and Avery, supra, and is shown in FIG. 1. For comparison, reference is made to the EPG's for wild-type and exp-2 shown by Davis, Dent and Avery, Worm Breeders Gazette 14(4); 72 (1996), as well as the EPG's for wild-type shown in Raizen and Avery.
The influence of 4-aminopyridine on the EPG of a hKv4.3-expressing strain was studied using the hKv4.3-expressing pha-1 strain UG 1598 of Example III. As mentioned in Example VI, exposing this strain UG 1598 to 4-aminopyridine leads to a reduction of pharynx pumping.
The EPG's for UG 1598 (using 4 pharynxes) were recorded essentially as described in Example XII. The EPG's of UG 1598 without 4-aminopyridine were recorded during a period of 5 minutes, upon which the pharynxes were exposed to 215 mM 4-aminopyridine, and the EPG's were further recorded during a 5 minute period. The EPG's with and without the presence of 4-aminopyridine were then compared with each other and to the EPG for wild-type (see the references mentioned in Example XII).
The number of “Kv4.3-like” AP's and the number of “normal” AP's during the 5 minute recording period were determined/counted from the recorded EPG's.
After exposure to the 4-aminopyridine, the number of “Kv4.3-like” AP's and the number of “normal” AP's during the 5 minute recording period were again determined/counted from the EPG recording.

[9] = UG 1598, compared to UG1598 without compound

SMILES: Nc1ccncc1 [4-aminopyridine]
- Change observed (pharynx pumping rate) [1]: increase in
- Change observed (pharynx pumping rate) ([2]; pha-1, hKv4.3, 0,5 mM, 3 hrs): increase in
- Influence on pharynx pumping rate (pumps per 30 seconds) ([2]; strain UG 1598, 0,5 mM in agar plates, 3 hours at 20° C., FIG. 4): increases
- Pharynx pumping (as restated in Example XIII) ([2]; strain UG 1598, refers to Example VI): reduction
- Uptake of fluorescent marker Calcein AM (drinking) [3]: 103%
- Influence on pharynx pumping rate (pumps per 30 seconds) [4]: very little influence
- Uptake of fluorescent marker Calcein AM (drinking) [5]: 109%
- Influence on pharynx pumping rate (pumps per 30 seconds) [6]: very little influence
- Change observed (pharynx pumping rate) ([7]; exp-2, hKv4.3, 3 hrs): (small) decrease
- Influence on pharynx pumping rate (pumps per 30 seconds) ([7]; strain UG 1611, 2 mM in agar plates, 3 hours at 20° C., FIG. 5): decreases
- Number of "normal" APs during the 5 minute recording period ([8]; UG 1598, 4 pharynxes, before adding 14+/−12, P<0.0161): 64+/−9
- Relative number of "Kv4.3 like" AP's in EPG [8, 9]: significant decrease
- Relative number of "normal" AP's in EPG [8, 9]: corresponding increase
